Data taken from PubChem BioAssay (NCI).
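A five-concentration, 48-hour dose response in 96-well plates underlies each endpoint, interpolated linearly between surrounding concentrations. Definition used: TGI = concentration required for complete inhibition of growth.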

Key:
Assay in all cases: NCI tumour cell line growth inhibition, 48 h
U251 CNS = test system: U251 CNS
MOLT-4 leukemia = test system: MOLT-4 leukemia
HCT-15 colon = test system: HCT-15 colon
SK-MEL-2 melanoma = test system: SK-MEL-2 melanoma
TK-10 renal = test system: TK-10 renal
OVCAR-4 ovarian = test system: OVCAR-4 ovarian
ACHN renal = test system: ACHN renal
MALME-3M melanoma = test system: MALME-3M melanoma
SF-539 CNS = test system: SF-539 CNS
KM12 colon = test system: KM12 colon
SK-OV-3 ovarian = test system: SK-OV-3 ovarian
K-562 leukemia = test system: K-562 leukemia
SNB-75 CNS = test system: SNB-75 CNS
SR leukemia = test system: SR leukemia
SK-MEL-28 melanoma = test system: SK-MEL-28 melanoma
A498 renal = test system: A498 renal

Measured: TGI

N#Cc1ccc(Nc2cnc3cc(N)ccc3n2)cc1
> 100 µM: U251 CNS | MOLT-4 leukemia | HCT-15 colon | SK-MEL-2 melanoma | TK-10 renal | OVCAR-4 ovarian | ACHN renal | MALME-3M melanoma | SF-539 CNS | KM12 colon | SK-OV-3 ovarian | K-562 leukemia | SNB-75 CNS | SR leukemia | SK-MEL-28 melanoma

Cn1c(=O)c2c(ncn2CCCCn2ccnc2[N+](=O)[O-])n(C)c1=O
> 100 µM: U251 CNS | MOLT-4 leukemia | HCT-15 colon | SK-MEL-2 melanoma | TK-10 renal | OVCAR-4 ovarian | ACHN renal | MALME-3M melanoma | SF-539 CNS | KM12 colon | K-562 leukemia | SNB-75 CNS | SR leukemia | SK-MEL-28 melanoma

Cc1ccc(/C=C/C(=O)c2sc(C(N)=S)nc2C)cc1
> 100 µM: U251 CNS | MOLT-4 leukemia | HCT-15 colon | SK-MEL-2 melanoma | TK-10 renal | ACHN renal | MALME-3M melanoma | SF-539 CNS | KM12 colon | SK-OV-3 ovarian | K-562 leukemia | SNB-75 CNS | A498 renal | SK-MEL-28 melanoma

COc1ccc(C2Cc3cc(OC)c(OC)c(OC)c3C2=O)cc1 (configuration not stated)
> 100 µM: U251 CNS | MOLT-4 leukemia | HCT-15 colon | SK-MEL-2 melanoma | TK-10 renal | OVCAR-4 ovarian | ACHN renal | MALME-3M melanoma | SF-539 CNS | KM12 colon | SK-OV-3 ovarian | K-562 leukemia | SNB-75 CNS | A498 renal | SK-MEL-28 melanoma

O=S1(=O)COc2ccccc2-c2ncncc21
> 100 µM: U251 CNS | MOLT-4 leukemia | HCT-15 colon | TK-10 renal | OVCAR-4 ovarian | ACHN renal | MALME-3M melanoma | SF-539 CNS | KM12 colon | SK-OV-3 ovarian | K-562 leukemia | SNB-75 CNS | SR leukemia | A498 renal | SK-MEL-28 melanoma

COc1ccc(NC(=O)CSc2nnc(Cc3ccccc3)o2)cc1
> 100 µM: U251 CNS | MOLT-4 leukemia | HCT-15 colon | SK-MEL-2 melanoma | TK-10 renal | OVCAR-4 ovarian | ACHN renal | MALME-3M melanoma | SF-539 CNS | KM12 colon | SK-OV-3 ovarian | K-562 leukemia | SNB-75 CNS | A498 renal | SK-MEL-28 melanoma

CC(=O)N(/N=C\c1ccc([N+](=O)[O-])cc1)c1ccccc1
> 100 µM: U251 CNS | HCT-15 colon | SK-MEL-2 melanoma | TK-10 renal | OVCAR-4 ovarian | ACHN renal | MALME-3M melanoma | SF-539 CNS | KM12 colon | SK-OV-3 ovarian | K-562 leukemia | SNB-75 CNS | A498 renal | SK-MEL-28 melanoma

O=C1CCCCC1C1(O)C(=O)Nc2cc(F)ccc21 (configuration not stated)
> 100 µM: U251 CNS | MOLT-4 leukemia | HCT-15 colon | SK-MEL-2 melanoma | TK-10 renal | OVCAR-4 ovarian | ACHN renal | MALME-3M melanoma | SF-539 CNS | KM12 colon | SK-OV-3 ovarian | K-562 leukemia | SNB-75 CNS | A498 renal | SK-MEL-28 melanoma
